{"source": "patent US6800635B2", "about": "“Crystalline form II of cabergoline” (Pharmacia Italia, S.p.A., priority 2000, dated 2004)", "assay": "Relative thermodynamic stability of cabergoline polymorphs (slurry of a mixture of forms I and II)", "assay_type": "physicochemical", "settings": "range of temperature between −70 and +30° C.; compared with Form I", "description": "It can be readily prepared starting from crude material by crystallization from several solvents at low temperatures. Alternatively it can be prepared by slurry of a mixture of forms I and II in a solvent at a temperature below 30° C. The importance of cabergoline form II rests primarily (but not exclusively) in its thermodynamic stability.\nCrystalline Form II cabergoline may be also prepared by subjecting a mixture of crystal forms I and II of cabergoline to a slurry procedure at a temperature below 30° C. Preferably, the mixture is stirred at room temperature in organic aliphatic linear C4-7 alkanes or C4-C5 ethers such as n-hexane or diethyl ether. In the mixture, the Form I/Form II ratio is preferably from 10:1 to 1:10. The resultant crystals were collected as above described.\nA mixture of 200 mg of form I and of an equal amount of form II was added to 50 ml of n-hexane at 25° C. The suspension was stirred for about 12 hours, then filtered using a glass filter under vacuum. The collected crystals were identified by analytical methods as pure form II. The analytical data were the same of example 1.\nA mixture of 50 mg of form I and of 350 mg of form II was added to 5 ml of diethyl ether at −5° C. The suspension was stirred for about 12 hours, then filtered using a glass filter under vacuum. The collected crystals were identified by analytical methods as pure form II. […]"}
{"smiles": "C=CCN1C[C@H](C(=O)N(CCCN(C)C)C(=O)NCC)C[C@@H]2c3cccc4[nH]cc(c34)C[C@H]21", "note": "[Form II, 1((6-allylergolin-8Beta-yl)-carbonyl)-1-(3-dimethylaminopropyl)-3-ethylurea]", "values": [{"measurement": "thermodynamic stability of the polymorph", "value": "thermodynamically most stable polymorph"}]}
